Values after ≈ are worked out from the molar mass of the structure shown.
Legend:
[1] = test system: B. thetaiotaomicron; test: MIC agar dilution, anaerobic bacteria; format: cell-based
[2] = test system: Nocardia asteroides; test: MIC agar dilution, aerobic and facultative bacteria; details: Culture # 5173
[3] = test system: Providencia stuartii; test: as above; details: Culture # 1831
[4] = test system: Acinetobacter calcoaceticus; test: as above; details: Culture # 1845
[5] = test system: Pseudomonas aeruginosa; test: as above
[6] = test system: anaerobic pathogens, in particular Clostridium species; test: In vitro activity against anaerobic pathogens, Wilkins-Chalgren agar; format: cell-based; details: MIC, Table 2
Excerpt: It has now been established that novel antimicrobial agents may be obtained by chemical modification of tiacumicins, which are antibiotics isolated from the fermentation broth and mycelium of Dactylosporangium aurantiacum subsp. hamdenensis subsp. nov. Tiacumicin antibiotics are described in U.S. Pat. No. 4,918,174 (issued Apr. 17, 1990 and incorporated herein by reference), and comprise the compounds tiacumicin A, tiacumicin B, tiacumicin C, tiacumicin D, tiacumicin E and tiacumicin F. The compounds of the present invention, which are derivatives of the above tiacumicins, are found to have in vitro activity against a variety of bacterial pathogens and in particular against Clostridium when evaluated in an assay utilizing Wilkins-Chalgren agar in anaerobic conditions. It is therefore expected that these compounds will be useful in the treatment of bacterial infections in mammals, and in particular in the treatment of certain instances of colitis.

## CCc1c(Cl)c(OC)c(Cl)c(OC)c1C(=O)OC1C(C)OC(OCC2=CC=CCC(O)C(C)=CC(CC)C(OC3OC(C)(C)C(OC(=O)C(C)C)C(O)C3O)C(C)=CC(C)=CCC(C(C)O)OC2=O)C(OC)C1O (stereo not shown) [Example 2, 3"', 5"'-Di-O-methyltiacumicin B]
[1]; Culture # 1764
  MIC: > 2 µg/mL
[1]; Culture # 1765
  MIC: > 2 µg/mL
[1]; Culture # 1766
  MIC: > 2 µg/mL
[2]
  MIC: 0.39 µg/mL (≈ 0.359 µM)
[3]
  MIC: > 100 µg/mL
[4]
  MIC: > 100 µg/mL
[5]; Culture # 1679
  MIC: > 100 µg/mL
[5]; Culture # 1680
  MIC: > 100 µg/mL
[5]; Culture # 1681
  MIC: > 100 µg/mL
[5]; Culture # 1682
  MIC: 100 µg/mL (≈ 92.1 µM)
[5]; cipro R, Culture # 1919
  MIC: > 100 µg/mL
[5]; cipro R, Culture # 1920
  MIC: > 100 µg/mL
[6]
  activity against anaerobic pathogens: substantial activity against anaerobic pathogens and in particular against Clostridium species
